Results on two molecules are retold here after US11591323B2, “Muscarinic agonists as non-steroidal and non-opioid analgesics and methods of use thereof” (Barry University, priority 2019, dated 2023).

Where two headings read alike, the source gives them in different places.

Holding throughout (set-up): host or cells: CHO cells, stably transfected
Assay [1] concerns the target T1, M4 muscarinic receptor (Homo sapiens, UniProt P08173).
T1 sequence (P08173 1-479): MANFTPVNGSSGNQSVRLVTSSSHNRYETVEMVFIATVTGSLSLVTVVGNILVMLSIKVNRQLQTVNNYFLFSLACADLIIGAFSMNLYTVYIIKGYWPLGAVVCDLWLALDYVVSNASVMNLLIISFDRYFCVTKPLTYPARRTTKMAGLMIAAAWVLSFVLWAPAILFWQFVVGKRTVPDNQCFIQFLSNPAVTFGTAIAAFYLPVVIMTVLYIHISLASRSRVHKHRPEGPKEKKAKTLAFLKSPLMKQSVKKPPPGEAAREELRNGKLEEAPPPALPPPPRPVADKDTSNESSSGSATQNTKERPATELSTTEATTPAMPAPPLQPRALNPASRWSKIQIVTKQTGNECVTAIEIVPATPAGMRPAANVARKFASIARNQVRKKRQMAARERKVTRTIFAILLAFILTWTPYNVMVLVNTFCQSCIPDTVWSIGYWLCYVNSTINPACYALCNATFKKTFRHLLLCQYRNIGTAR
In words: inhibition of forskolin-stimulated cAMP, M4 CHO cells (M4Gi). It is filed as cell-based. To be noted: for Emax: CHO; for EC50: read-out: pEC50 (converted).

In assay [2] the target is T1, M4 muscarinic receptor. In words: [3H]NMS competition binding, M4 CHO membranes.
The target in a further assay is T2, M1 muscarinic receptor (Homo sapiens, UniProt P11229).
T2 sequence (P11229 1-460): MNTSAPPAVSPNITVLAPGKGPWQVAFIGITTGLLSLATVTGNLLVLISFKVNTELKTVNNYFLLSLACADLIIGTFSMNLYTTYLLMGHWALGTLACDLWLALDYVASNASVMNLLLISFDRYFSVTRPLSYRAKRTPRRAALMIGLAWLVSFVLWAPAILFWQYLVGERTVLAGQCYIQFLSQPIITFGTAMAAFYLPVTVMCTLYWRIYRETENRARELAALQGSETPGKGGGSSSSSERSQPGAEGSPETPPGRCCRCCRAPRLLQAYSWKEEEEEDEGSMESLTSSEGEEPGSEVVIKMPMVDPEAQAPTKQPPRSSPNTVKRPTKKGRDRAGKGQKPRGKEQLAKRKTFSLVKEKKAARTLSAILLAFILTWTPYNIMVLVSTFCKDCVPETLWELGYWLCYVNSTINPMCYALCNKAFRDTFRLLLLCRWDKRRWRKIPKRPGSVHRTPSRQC
In words: stimulation of cAMP, M1 CHO cells (M1Gs). It is filed as cell-based. As to the method: Since activation of phospholipase C (PLC) via M2 and M4 receptors is weak, cells were transferred with G15 G-protein to facilitate coupling.
(§1) To determine level of cAMP, cells in suspension were pre-incubated for 1 h with 0.4 μM [^3H]adenine, washed, and incubated for 10 min in the presence of isobutylmethylxanthine and 10 μM forskolin. […] Incubation was ended by addition of 0.2 ml of 2.5 M HCl to the samples. Samples were applied to alumina columns (1.5 g of alumina per column), washed with 2 ml ammonium acetate (pH=7.0) and eluted from columns with 4 ml ammonium acetate and measured by liquid scintillation spectrometry. […] The incubation was stopped by addition of 0.5 ml of chloroform methanol HCl mixture (2:1:0.1). After separation of water and organic phases, 0.6 ml of water phase was applied to Dowex columns (1.5 g of Dowex per column), washed by 20 ml of 60 mM ammonium formate/5 mM sodium borate buffer and eluted from columns with 4 ml of 1M ammonium formate/0.1 formic acid buffer and measured by liquid scintillation spectrometry.
(§2) Measurements of the production of cAMP and inositol phosphates: Levels of second messengers cAMP and inositol phosphates were determined in radiochemical chromatography assays as described previously. To determine level of cAMP, cells in suspension were pre-incubated for 1 h with 0.4 μM [^3H]adenine, washed, and incubated for 10 min in the presence of isobutylmethylxanthine and 10 μM forskolin. […] Incubation was ended by addition of 0.2 ml of 2.5 M HCl to the samples. Samples were applied to alumina columns (1.5 g of alumina per column), washed with 2 ml ammonium acetate (pH=7.0) and eluted from columns with 4 ml ammonium acetate and measured by liquid scintillation spectrometry. […] For this purpose, new CHO cell lines stably expressing promiscuous G15 G-protein and M2 or M4 receptor were generated by transfection with pCMV/hygro vector and hygromycin selection. To determine the rate of formation of inositol phosphates IPX, suspended cells were pre-incubated with 0.1 μM [^3H]myo-inositol for 60 min, washed, and incubated with 10 mM LiCl for 15 min. […] The incubation was stopped by addition of 0.5 ml of chloroform methanol HCl mixture (2:1:0.1). After separation of water and organic phases, 0.6 ml of water phase was applied to Dowex columns (1.5 g of Dowex per column), washed by 20 ml of 60 mM ammonium formate/5 mM sodium borate buffer and eluted from columns with 4 ml of 1M ammonium formate/0.1 formic acid buffer and measured by liquid scintillation spectrometry.
(§3) For bi-phasic response, curves were inhibitory and stimulatory phase were fitted separately. Operational Model of Functional Agonism
(§4) [formula] where y is functional response at concentration of tested compound x, EMAX is maximal response of the system, KA is equilibrium dissociation constant and nH is slope factor. Eq. 5 was fitted to data from functional experiments. Eq. 5 was fitted to data by the two-step procedure described earlier. […] In the second step, Eq. 5 with EMAX fixed to the value determined in the first step was fitted to individual experimental data sets. Relative Intrinsic Activity
Muscarinic receptors are also able to stimulate non-preferential signalling pathways.

The target in assay [3] is T1, M4 muscarinic receptor. Kind of assay: accumulation of IPX, M4 CHO cells (M4Gq). It is filed as cell-based. The note with it: for RAi: Table 8, relative to carbachol. The method, then: as §1, §2, §3, §4
Assay [4] has as its target T1, M4 muscarinic receptor. In words: stimulation of cAMP, M4 CHO cells (M4Gs). It is filed as cell-based. To be noted: for RAi: Table 8, relative to carbachol. The method, then:
as §1, §2, §3, §4

Where [5] appears, read: M4 (↓cAMP), preferential response, Table 7.
[6] abbreviates: M4 (↓cAMP), preferential response, Table 7, operational efficacy.
[7] abbreviates: M4 (↓cAMP), preferential response, relative to carbachol, Tables 2, 3, 7.
[8] abbreviates: M4 (↓cAMP), preferential response, to carbachol, Tables 2, 3, 7.
The mark [9] stands for this setting: M4Gi (↓cAMP), Table 8, relative to carbachol.
Setting [10] is: M4Gi (↓cAMP), Table 8, to carbachol.

On to `O=C1CCCN1CC#CCN1CCCC1` [oxotremorine, reference compound], for which the Kd is 0.0316 µM on M4 muscarinic receptor [1], 15.8 µM on M1 muscarinic receptor, 0.2 µM on M4 muscarinic receptor [3] and 6.31 µM on M4 muscarinic receptor [4]. For the same molecule, the Emax on M4 muscarinic receptor [1] is 48 ± 2%. Also, the pEC50 on M4 muscarinic receptor [1] (setting [5]) was found to be 7.85 ± 0.04; on M4 muscarinic receptor [1] (M4Gi (↓cAMP), Table 8) it was 7.85 ± 0.04. Also, the τ on M4 muscarinic receptor [1] (setting [6]) worked out at 1.17 ± 0.08; at M4 muscarinic receptor [1] (M4Gi (↓cAMP), Table 8), 1.2 ± 0.1; on M1 muscarinic receptor, 0.38 ± 0.04; on M4 muscarinic receptor [3] (M4Gq (↑IPX), Table 8), 0.17 ± 0.02; on M4 muscarinic receptor [4] (M4Gs (↑cAMP), Table 8) it was 1.3 ± 0.1. Also, the RAi on M4 muscarinic receptor [1] (setting [7]) came to 3.81 ± 0.16; at M4 muscarinic receptor [1] (setting [9]), 3.81 ± 0.16; on M1 muscarinic receptor, 3.91 ± 0.22; on M4 muscarinic receptor [3] (M4Gq (↑IPX)), 4.69 ± 0.17; on M4 muscarinic receptor [4] (M4Gs (↑cAMP)), 3.58 ± 0.31. Moreover, the “Δlog(τ/KA)” value at M4 muscarinic receptor [1] (setting [8]) is reported as −0.62 ± 0.08; on M4 muscarinic receptor [1] (setting [10]) it was −0.62 ± 0.08; on M1 muscarinic receptor, −0.59 ± 0.06; on M4 muscarinic receptor [3] (M4Gq (↑IPX), Table 8, to carbachol) it was −0.67 ± 0.06; on M4 muscarinic receptor [4] (M4Gs (↑cAMP), Table 8, to carbachol), −0.55 ± 0.06. For the same molecule, the “E′MAX” value is listed as 48 ± 2 % inhibition on M4 muscarinic receptor [1] (M4Gi (↓cAMP), Table 8); 1.77 ± 0.08 fold increase on M1 muscarinic receptor; 1.58 ± 0.04 fold over basal at M4 muscarinic receptor [3] (M4Gq (↑IPX), Table 8); 2.6 ± 0.2 fold increase at M4 muscarinic receptor [4] (M4Gs (↑cAMP), Table 8). Further, the pKA on M4 muscarinic receptor [1] (M4Gi (↓cAMP), Table 8) came out at 7.5 ± 0.1. For the same molecule, the Ki on M4 muscarinic receptor [2] (Inhibition constants (KI) as negative logarithms, M4, high site, reference agonists, high affinity site) is 0.0126 µM; on M4 muscarinic receptor [2] (Inhibition constants (KI) as negative logarithms, M4, low site, reference agonists, low affinity site), 0.617 µM. For the same molecule, the EC50 is 11.2 µM on M1 muscarinic receptor, 0.162 µM on M4 muscarinic receptor [3] and 2.75 µM on M4 muscarinic receptor [4].

On to `C1=CCN(Cc2cccs2)CC1.Cl` [Compound 6A, 1-[(thiophen-2-yl)methyl]-1,2,3,6-tetrahydropyridin-1-ium chloride], for which, at M4 muscarinic receptor [1] (M4 (↓cAMP), preferential response, Table 7, read-out: E′MAX), the Emax was determined as 25 ± 2%. Also, the τ at M4 muscarinic receptor [1] (setting [6]) is on record as 0.39 ± 0.04; at M4 muscarinic receptor [1] (M4Gi (↓cAMP), Table 8), 0.39 ± 0.04. Also, the Kd at M4 muscarinic receptor [1] (M4 (↓cAMP), preferential response, Table 7, operational model, read-out: pKA (converted)) is 6.31 µM; at M4 muscarinic receptor [1] (M4Gi (↓cAMP), Table 8, read-out: pKA (converted)) it was 12.6 µM. In addition, the EC50 is 4.27 µM on M4 muscarinic receptor [1] (setting [5]) and 8.51 µM at M4 muscarinic receptor [1] (M4Gi (↓cAMP), Table 8). Moreover, the RAi at M4 muscarinic receptor [1] (setting [7]) is 0.0046 ± 0.0004; on M4 muscarinic receptor [1] (setting [9]) it was 0.0046 ± 0.0004; at M1 muscarinic receptor (M1Gs (↑cAMP), Table 8, relative to carbachol), 0; at M4 muscarinic receptor [3] (M4Gq (↑IPX)), 0; on M4 muscarinic receptor [4] (M4Gs (↑cAMP)), 0. In addition, the “Δlog(τ/KA)” value at M4 muscarinic receptor [1] (setting [8]) and on M4 muscarinic receptor [1] (setting [10]) was 2.15 ± 0.16 throughout. Besides, the “E′MAX” value at M4 muscarinic receptor [1] (M4Gi (↓cAMP), Table 8) was found to be 25 ± 2 % inhibition. Moreover, on M4 muscarinic receptor [2] (at M4 receptors, read-out: Inhibition constants Ki), the Ki came to 54 µM.
